“And” between values parts separate entries of the source, which are not always exact repeats. Equal entries are not always repeated. Where two headings read alike, the source gives them in different places. Where a SMILES comes first, the peptide text is derived from it. The star is where a group is joined. MeOSuc = COC(=O)CCC(=O)*; CH2Cl = ClC*
What was measured:
collagenase = assay: Collagenase inhibition assay; type: biochemical
Protocol: A collagenase inhibition assay was performed to determine the collagenase inhibition of an extract derived from sugar cane of the present disclosure. Two batches (replicate 1 and replicate 2) of an extract derived from sugar cane of the present disclosure in a concentration of from 0.17 mg/mL to 350 mg/mL were tested for the ability to inhibit collagenase.
To measure collagenase inhibition potential of an extract derived from sugar cane of the present disclosure, a test sample of an extract derived from sugar cane was mixed sequentially with type-I collagen substrate and a diluted collagenase enzyme solution. After incubation for 30 minutes at 37° C., fluorescence was measured at excitation maxima of 495 nm and emission maxima of 515 nm. The inhibition percentage was calculated as follows.
[formula] Wherein, • Abssample=absorbance of the sample test, • Absblank=absorbance of the sample blank, • Abspositive control=absorbance of the positive control, and • Absnegative control=absorbance of the negative control.
1,10-phenanthroline was used as a positive assay control. Two batches (replicate 1 and replicate 2) of 1,10-phenanthroline in a concentration of from 1.7 μM to 3500 μM were used in the positive control assay. A negative control was performed with a buffer and a collagen substrate but without collagenase enzyme.

telomerase = target: T1, telomerase (Homo sapiens, UniProt O14746); assay: Cellular telomerase activity assay (TRAP); type: cell-based; design: Telomerase activity Replicate 1 / Telomerase activity Replicate 2 / Telomerase activity Average: unit not given here
T1 construct: endogenous in cells
Description: A cellular telomerase activity assay determines the ability of a test material to stimulate telomerase activity in human cells, which translates to the material's anti-aging potential. […]
In the cellular telomerase activity assay, telomerase activity level of human cells treated with (and without) a test sample of an extract derived from sugar cane of the present disclosure was monitored. Specifically, a telomeric repeat amplification protocol (TRAP assay) was used for the assay. The TRAP assay was divided into three main steps: extension, amplification, and detection of telomerase products. In the extension phase, telomeric sequences were added to the telomerase substrate, a non-telomeric oligonucleotide, through the action of telomerase present in the cell extract. The products of the extension step were amplified by PCR using specific primers and finally were analyzed via electrophoresis.
Cycloastragenol, a known telomerase activator, was used as an assay control. Two batches (replicate 1 and replicate 2) of cycloastragenol in a concentration from 0.06 μM to 3 μM were used in the control assay.

elastase = target: T2, elastase (Homo sapiens, UniProt P08246); assay: Elastase inhibition assay; type: biochemical
T2 sequence (P08246 30-247): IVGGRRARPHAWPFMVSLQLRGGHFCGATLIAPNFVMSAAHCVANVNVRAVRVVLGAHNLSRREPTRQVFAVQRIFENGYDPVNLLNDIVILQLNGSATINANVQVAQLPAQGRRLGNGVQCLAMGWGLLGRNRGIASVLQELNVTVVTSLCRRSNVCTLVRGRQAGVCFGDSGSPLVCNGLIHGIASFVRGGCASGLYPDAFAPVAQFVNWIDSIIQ
Protocol: An elastase inhibition assay was performed to determine the elastase inhibition potential of an extract derived from sugar cane of the present disclosure. […] To measure elastase inhibitory potential of an extract derived from sugar cane of the present disclosure, a test sample of an extract derived from sugar cane was mixed and incubated with N-methoxysuccinyl-[…]-chloromethyl ketone in tris-HCl buffer for 15 min. Then elastase was added to the mixture and incubated for 15 min. […] [formula] Wherein, • Abssample+elastase=absorbance of test sample after incubation with elastase, • Abssample-elastase=absorbance of test sample before incubation with elastase, • Absblank+elastase=absorbance of blank after incubation with elastase, and • Absblank-elastase=absorbance of blank before incubation with elastase. N-methoxysuccinyl-[…]-chloromethyl ketone, a human leukocyte elastase (HLE) inhibitor, was used as an assay control.

[1] = system: melanin production in human skin cells; assay: Cellular melanin pigmentation inhibition assay; type: cell-based; conditions: for EC50 / inhibition at 10 µM / inhibition at 0.31 µM / inhibition at 0.63 µM / inhibition at 1.25 µM / inhibition at 2.5 µM / inhibition at 5 µM: Homo sapiens
Protocol: A melanin production inhibition assay was performed to determine the potential of an extract derived from sugar cane of the present disclosure to inhibit melanin production.
To measure melanin pigmentation inhibition potential of an extract derived from sugar cane of the present disclosure, a test sample of an extract derived from sugar cane, in combination with theophylline, was added to a pre-incubated human skin cell culture. After incubating for 72 hours, the cells were washed with phosphate-buffered saline (PBS), lysed in 1 M NaOH, and boiled for 5 minutes to solubilize the melanin. The inhibition rates of the lysates were measured at 490 nm and expressed as a percentage relative to the value of the untreated control.
Chloroquine, a known melanin production inhibitor, was used as an assay control. Two batches (replicate 1 and replicate 2) of chloroquine in a concentration from 0.31 μM to 10 μM were used in the control assay.

[2] = read-out: Inhibition (%) Average
[3] = read-out: Inhibition (%) Relicate 1
[4] = read-out: Inhibition (%) Replicate 2
[5] = read-out: Melanin inhibition (%) Average
[6] = read-out: Melanin inhibition (%) Replicate 1
[7] = read-out: Melanin inhibition (%) Replicate 2

T1 sequence (O14746 whole entry): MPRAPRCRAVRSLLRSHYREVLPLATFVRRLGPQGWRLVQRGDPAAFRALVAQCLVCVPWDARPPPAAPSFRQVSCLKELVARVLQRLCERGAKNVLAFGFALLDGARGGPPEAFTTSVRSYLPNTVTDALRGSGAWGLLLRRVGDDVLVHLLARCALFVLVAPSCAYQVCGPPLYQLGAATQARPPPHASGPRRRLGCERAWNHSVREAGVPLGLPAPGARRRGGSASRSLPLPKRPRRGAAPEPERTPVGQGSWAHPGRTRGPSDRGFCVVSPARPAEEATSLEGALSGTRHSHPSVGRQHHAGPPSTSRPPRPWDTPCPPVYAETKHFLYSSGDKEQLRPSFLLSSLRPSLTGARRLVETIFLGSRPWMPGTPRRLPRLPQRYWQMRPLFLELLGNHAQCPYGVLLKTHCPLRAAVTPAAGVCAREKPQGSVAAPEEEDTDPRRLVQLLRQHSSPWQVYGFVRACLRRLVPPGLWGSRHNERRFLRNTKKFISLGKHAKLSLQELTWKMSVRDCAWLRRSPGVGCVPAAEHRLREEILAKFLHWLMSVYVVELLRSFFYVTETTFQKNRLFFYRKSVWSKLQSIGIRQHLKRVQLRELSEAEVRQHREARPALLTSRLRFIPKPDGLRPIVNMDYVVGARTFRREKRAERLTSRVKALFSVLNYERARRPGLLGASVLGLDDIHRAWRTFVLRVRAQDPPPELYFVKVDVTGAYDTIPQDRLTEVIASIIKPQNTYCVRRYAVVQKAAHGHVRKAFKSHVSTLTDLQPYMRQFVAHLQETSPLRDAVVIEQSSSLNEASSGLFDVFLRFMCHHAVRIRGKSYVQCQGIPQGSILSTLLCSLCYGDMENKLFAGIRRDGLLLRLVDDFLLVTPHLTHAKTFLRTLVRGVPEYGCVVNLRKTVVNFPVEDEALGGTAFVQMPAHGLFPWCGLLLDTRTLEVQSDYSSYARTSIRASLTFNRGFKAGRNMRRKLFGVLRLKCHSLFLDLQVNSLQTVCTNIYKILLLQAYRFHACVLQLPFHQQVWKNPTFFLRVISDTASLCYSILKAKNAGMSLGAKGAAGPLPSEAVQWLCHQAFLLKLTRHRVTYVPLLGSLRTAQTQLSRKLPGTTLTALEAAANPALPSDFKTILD

SMILES: c1cnc2c(c1)ccc1cccnc12 [1,10-phenanthroline]
- Concentration inducing the maximum inhibition (collagenase) (collagenase): 3.50 mM
- Inhibition (%) Average (collagenase; 1.71 uM): −29.05%
- Inhibition (%) Relicate 1 (collagenase; 1.71 uM): −29.63%
- Inhibition (%) Replicate 2 (collagenase; 1.71 uM): −28.47%
- Inhibition (%) Average (collagenase; 3.42 uM): −25.76%
- Inhibition (%) Relicate 1 (collagenase; 3.42 uM): −27.08%
- Inhibition (%) Replicate 2 (collagenase; 3.42 uM): −24.45%
- Inhibition (%) Average (collagenase; 6.84 uM): −21.65%
- Inhibition (%) Relicate 1 (collagenase; 6.84 uM): −22.85%
- Inhibition (%) Replicate 2 (collagenase; 6.84 uM): −20.46%
- Inhibition (%) Average (collagenase; 13.67 uM): −6.70%
- Inhibition (%) Relicate 1 (collagenase; 13.67 uM): −7.40%
- Inhibition (%) Replicate 2 (collagenase; 13.67 uM): −6.00%
- Inhibition (%) Average (collagenase; 27.34 uM): 24.95%
- Inhibition (%) Relicate 1 (collagenase; 27.34 uM): 25.64%
- Inhibition (%) Replicate 2 (collagenase; 27.34 uM): 24.25%
- Inhibition (%) Average (collagenase; 54.69 uM): 58.50%
- Inhibition (%) Relicate 1 (collagenase; 54.69 uM): 57.26%
- Inhibition (%) Replicate 2 (collagenase; 54.69 uM): 59.74%
- Inhibition (%) Average (collagenase; 109.38 uM): 71.66%
- Inhibition (%) Relicate 1 (collagenase; 109.38 uM): 71.77%
- Inhibition (%) Replicate 2 (collagenase; 109.38 uM): 71.54%
- Inhibition (%) Average (collagenase; 218.75 uM): 75.46%
- Inhibition (%) Relicate 1 (collagenase; 218.75 uM): 75.14%
- Inhibition (%) Replicate 2 (collagenase; 218.75 uM): 75.78%
- Inhibition (%) Average (collagenase; 437.50 uM): 77.01%
- Inhibition (%) Relicate 1 (collagenase; 437.50 uM): 76.63%
- Inhibition (%) Replicate 2 (collagenase; 437.50 uM): 77.39%
- Inhibition (%) Average (collagenase; 875.00 uM): 77.37%
- Inhibition (%) Relicate 1 (collagenase; 875.00 uM): 77.01%
- Inhibition (%) Replicate 2 (collagenase; 875.00 uM): 77.72%
- Inhibition (%) Average (collagenase; 1750.00 uM): 77.27%
- Inhibition (%) Relicate 1 (collagenase; 1750.00 uM): 76.83%
- Inhibition (%) Replicate 2 (collagenase; 1750.00 uM): 77.71%
- Inhibition (%) Average (collagenase; 3500.00 uM): 78.99%
- Inhibition (%) Relicate 1 (collagenase; 3500.00 uM): 79.75%
- Inhibition (%) Replicate 2 (collagenase; 3500.00 uM): 78.24%
- Maximum inhibition achieved (collagenase) (collagenase; at 3.50 mM): 78.99%
- EC50 (collagenase; effective concentration at 50% of maximal inhibition): 26800 nM
- EC50 (collagenase inhibition) (collagenase; same value in mass units): (4.84 μg/mL)

SMILES: CC(C)(O)[C@@H]1CC[C@](C)([C@H]2[C@@H](O)C[C@@]3(C)[C@@H]4C[C@H](O)[C@H]5C(C)(C)[C@@H](O)CC[C@@]56C[C@@]46CC[C@]23C)O1 [Cycloastragenol]
- Telomerase activity Average (telomerase; 0.06 μM): 1387.33
- Telomerase activity Replicate 1 (telomerase; 0.06 μM): 925.83
- Telomerase activity Replicate 2 (telomerase; 0.06 μM): 1848.83
- Telomerase activity Average (telomerase; 0.13 μM): 1916.83
- Telomerase activity Replicate 1 (telomerase; 0.13 μM): 2080.83
- Telomerase activity Replicate 2 (telomerase; 0.13 μM): 1752.83
- Telomerase activity Average (telomerase; 0.25 μM): 5523.83
- Telomerase activity Replicate 1 (telomerase; 0.25 μM): 5415.83
- Telomerase activity Replicate 2 (telomerase; 0.25 μM): 5631.83
- Telomerase activity Average (telomerase; 0.50 μM): 7501.33
- Telomerase activity Replicate 1 (telomerase; 0.50 μM): 7834.83
- Telomerase activity Replicate 2 (telomerase; 0.50 μM): 7167.83
- Telomerase activity Average (telomerase; 1.00 μM): 15556.33
- Telomerase activity Replicate 1 (telomerase; 1.00 μM): 15590.83
- Telomerase activity Replicate 2 (telomerase; 1.00 μM): 15521.83
- Telomerase activity Average (telomerase; 3.00 μM): 21909.33
- Telomerase activity Replicate 1 (telomerase; 3.00 μM): 20995.83
- Telomerase activity Replicate 2 (telomerase; 3.00 μM): 22822.83
- EC50 (telomerase; half-maximal telomerase activation, human cells): 790 nM
- EC50 (telomerase activation) (telomerase; same value in mass units): (0.39 μg/mL

SMILES: COC(=O)CCC(=O)NC(C)C(=O)NC(C)C(=O)N1CCCC1C(=O)NC(C(=O)CCl)C(C)C (stereo not drawn) [N-methoxysuccinyl-Ala-Ala-Pro-Val-chloromethyl ketone] (MeOSuc-AAPV-CH2Cl; configuration not given here)
- Concentration inducing the maximum inhibition (elastase) (elastase): 250 µM
- inhibition at 250 µM (elastase; Conc. 250.00 uM, read-out: Inhibition (%) Average): 87.7%
- inhibition at 250 µM (elastase; Conc. 250.00 uM, read-out: Inhibition (%) Relicate 1): 87.6%
- inhibition at 250 µM (elastase; Conc. 250.00 uM, read-out: Inhibition (%) Replicate 2): 87.8%
- inhibition at 0.12 µM (elastase; [2]): 10.3%
- inhibition at 0.24 µM (elastase; [2]): 18.2%
- inhibition at 0.49 µM (elastase; [2]): 30.3%
- inhibition at 0.98 µM (elastase; [2]): 45.7%
- inhibition at 1.95 µM (elastase; [2]): 59.2%
- inhibition at 3.91 µM (elastase; [2]): 68.7%
- inhibition at 7.81 µM (elastase; [2]): 76.3%
- inhibition at 15.63 µM (elastase; [2]): 81%
- inhibition at 31.25 µM (elastase; [2]): 84.4%
- inhibition at 62.5 µM (elastase; [2]): 86.1%
- inhibition at 125 µM (elastase; [2]): 87.2%
- inhibition at 0.12 µM (elastase; [3]): 10.1%
- inhibition at 0.24 µM (elastase; [3]): 18.3%
- inhibition at 0.49 µM (elastase; [3]): 29.9%
- inhibition at 0.98 µM (elastase; [3]): 45.3%
- inhibition at 1.95 µM (elastase; [3]): 58.8%
- inhibition at 3.91 µM (elastase; [3]): 68.5%
- inhibition at 7.81 µM (elastase; [3]): 76.2%
- inhibition at 15.63 µM (elastase; [3]): 81.1%
- inhibition at 31.25 µM (elastase; [3]): 84.3%
- inhibition at 62.5 µM (elastase; [3]): 86%
- inhibition at 125 µM (elastase; [3]): 87.1%
- inhibition at 0.12 µM (elastase; [4]): 10.5%
- inhibition at 0.24 µM (elastase; [4]): 18.2%
- inhibition at 0.49 µM (elastase; [4]): 30.6%
- inhibition at 0.98 µM (elastase; [4]): 46.1%
- inhibition at 1.95 µM (elastase; [4]): 59.6%
- inhibition at 3.91 µM (elastase; [4]): 69%
- inhibition at 7.81 µM (elastase; [4]): 76.3%
- inhibition at 15.63 µM (elastase; [4]): 80.8%
- inhibition at 31.25 µM (elastase; [4]): 84.5%
- inhibition at 62.5 µM (elastase; [4]): 86.2%
- inhibition at 125 µM (elastase; [4]): 87.3%
- inhibition at 250 µM (elastase; read-out: Maximum inhibition achieved (elastase)): 87.7%

SMILES: CCN(CC)CCCC(C)Nc1ccnc2cc(Cl)ccc12 (stereo not drawn) [chloroquine, Chloroquine]
- Concentration inducing the maximum inhibition [1]: 10 µM
- EC50 [1]: 0.74 µg/mL and 1.43 µM
- EC50 ([1]; 72 h, read-out: EC50 (melanin production inhibition)): 1430 nM
- inhibition at 10 µM ([1]; read-out: Maximum inhibition achieved): 88.1%
- inhibition at 0.31 µM [1, 5]: 0.92%
- inhibition at 0.63 µM [1, 5]: 16.1%
- inhibition at 1.25 µM [1, 5]: 34.3%
- inhibition at 2.5 µM [1, 5]: 76.1%
- inhibition at 5 µM [1, 5]: 83.1%
- inhibition at 10 µM [1, 5]: 88.1%
- inhibition at 0.31 µM [1, 6]: 1.77%
- inhibition at 0.63 µM [1, 6]: 15.5%
- inhibition at 1.25 µM [1, 6]: 36.5%
- inhibition at 2.5 µM [1, 6]: 76.6%
- inhibition at 5 µM [1, 6]: 79.8%
- inhibition at 10 µM [1, 6]: 85.7%
- inhibition at 0.31 µM [1, 7]: 0.06%
- inhibition at 0.63 µM [1, 7]: 16.7%
- inhibition at 1.25 µM [1, 7]: 32.1%
- inhibition at 2.5 µM [1, 7]: 75.6%
- inhibition at 5 µM [1, 7]: 86.4%
- inhibition at 10 µM [1, 7]: 90.5%

From patent US12370232B2, “Use of polyphenol containing sugar cane extracts for preventing, improving or treating a skin condition” (priority 2017, dated 2025)
